Results taken from publication PMC8632988, “Inhibition of SYK and cSrc kinases can protect bone and cartilage in preclinical models of osteoarthritis and rheumatoid arthritis” (Scientific Reports, 2021).
Where “and” joins values, the source holds several entries; their conditions need not be identical. Equal values may be shown once.

How the values were obtained:
Lewis rats, CIA model = assay: Collagen-induced semi-established arthritis model in rats; assay type: in vivo, rat; details: for Bone Resorption score, % inhibition / Cartilage Damage score, % inhibition / Inflammation score, % inhibition / Pannus score, % inhibition / Summed Histopathology Scores, % inhibition: vs vehicle
Experimental: Rat CIA model was performed was performed at Pharmenterprises, Russia and approved by Ethics Committee of Pharmenterprises. Female Lewis rats with body weight of 164–183 g (Charles River Laboratories, Inc., Wilmington, MA) were injected with porcine type II collagen (Chondrex) emulsified with Freund’s Incomplete Adjuvant (Sigma Aldrich) at two sites at the base of the tail according to standard protocol. On day 7, the rats were boosted with a second subcutaneous injection. On day 6 of the study, rats were randomized by body weight into six groups: a control group of four, and five treatment groups of eight. […] Disease progression was monitored via daily ankle thickness measurements. At study termination on day 16 rats were anesthetized with Isoflurane, bled by vacutainer through the descending aorta to exsanguinate and then euthanized for tissue collection. Hind paws were transected at the level of the medial and lateral malleolus, weighed, and collected for microscopy.
[…]

ROCK2 = biological target: T1, ROCK2 (Homo sapiens, UniProt O75116); assay: Kinase selectivity profile assay; assay type: biochemical; details: 500 nM; relative to DMSO; read-out: Residual enzymatic activity
T1 construct: purchased Reaction Biology Corporation
Experimental: (§1) The activity of MT-SYK-03 against cSrc kinase and selectivity profile towards other 341 kinases was determined at Reaction Biology Corporation (Malvern, PA, USA) using the standard kinase assay protocol. […]; unbound phosphate was removed by extensive washing of filters in phosphoric acid. Kinase activity data was expressed as the percent remaining kinase activity in test samples compared to vehicle (dimethyl sulfoxide) reactions based on the radioactivity of reaction products (see Table S2). Experiment was replicated twice.

BRAF = biological target: T2, BRAF (Homo sapiens, UniProt P15056); assay: Kinase selectivity profile assay; assay type: biochemical; details: 500 nM; relative to DMSO; read-out: Residual enzymatic activity
T2 construct: purchased Reaction Biology Corporation
Experimental: as §1

MAPKAPK2 = biological target: T3, MAPKAPK2 (Homo sapiens, UniProt P49137); assay: Kinase selectivity profile assay; assay type: biochemical; details: 500 nM, relative to DMSO
T3 construct: purchased Reaction Biology Corporation
Experimental: as §1

GRK1 = biological target: T4, GRK1 (Homo sapiens, UniProt Q15835); assay: Kinase selectivity profile assay; assay type: biochemical; details: 500 nM; relative to DMSO; read-out: Residual enzymatic activity
T4 construct: purchased Reaction Biology Corporation
Experimental: as §1

MYO3b = biological target: T5, MYO3b (Homo sapiens, UniProt Q8WXR4); assay: Kinase selectivity profile assay; assay type: biochemical; details: 500 nM; relative to DMSO; read-out: Residual enzymatic activity
T5 construct: purchased Reaction Biology Corporation
Experimental: as §1

RIPK3 = biological target: T6, RIPK3 (Homo sapiens, UniProt Q9Y572); assay: Kinase selectivity profile assay; assay type: biochemical; details: 500 nM; relative to DMSO; read-out: Residual enzymatic activity
T6 construct: purchased Reaction Biology Corporation
Experimental: as §1

DRAK1/STK17A = biological target: T7, DRAK1/STK17A (Homo sapiens, UniProt Q9UEE5); assay: Kinase selectivity profile assay; assay type: biochemical; details: 500 nM; relative to DMSO; read-out: Residual enzymatic activity
T7 construct: purchased Reaction Biology Corporation
Experimental: as §1

GCK/MAP4K2 = biological target: T8, GCK/MAP4K2 (Homo sapiens, UniProt Q12851); assay: Kinase selectivity profile assay; assay type: biochemical; details: 500 nM; relative to DMSO; read-out: Residual enzymatic activity
T8 construct: purchased Reaction Biology Corporation
Experimental: as §1

PDK1/PDPK1 = biological target: T9, PDK1/PDPK1 (Homo sapiens, UniProt O15530); assay: Kinase selectivity profile assay; assay type: biochemical; details: 500 nM; relative to DMSO; read-out: Residual enzymatic activity
T9 construct: purchased Reaction Biology Corporation
Experimental: as §1

ALK2/ACVR1 = biological target: T10, ALK2/ACVR1 (Homo sapiens, UniProt Q04771); assay: Kinase selectivity profile assay; assay type: biochemical; details: 500 nM; relative to DMSO; read-out: Residual enzymatic activity
T10 construct: purchased Reaction Biology Corporation
Experimental: as §1

GRK3 = biological target: T11, GRK3 (Homo sapiens, UniProt P35626); assay: Kinase selectivity profile assay; assay type: biochemical; details: 500 nM; relative to DMSO; read-out: Residual enzymatic activity
T11 construct: purchased Reaction Biology Corporation
Experimental: as §1

SGK1 = biological target: T12, SGK1 (Homo sapiens, UniProt O00141); assay: Kinase selectivity profile assay; assay type: biochemical; details: 500 nM; relative to DMSO; read-out: Residual enzymatic activity
T12 construct: purchased Reaction Biology Corporation
Experimental: as §1

PDGFRa = biological target: T13, PDGFRa (Homo sapiens, UniProt P16234); assay: Kinase selectivity profile assay; assay type: biochemical
T13 construct: purchased Reaction Biology Corporation (Malvern, PA, USA)
Experimental: as §1

CDK5/p35 = biological target: T14, CDK5/p35 (Homo sapiens, UniProt Q00535); assay: Kinase selectivity profile assay; assay type: biochemical; details: 500 nM; relative to DMSO; read-out: Residual enzymatic activity
T14 construct: purchased Reaction Biology Corporation
Experimental: as §1

DCAMKL2 = biological target: T15, DCAMKL2 (Homo sapiens, UniProt Q8N568); assay: Kinase selectivity profile assay; assay type: biochemical; details: 500 nM; relative to DMSO; read-out: Residual enzymatic activity
T15 construct: purchased Reaction Biology Corporation
Experimental: as §1

BRK = biological target: T16, BRK (Homo sapiens, UniProt Q13882); assay: Kinase selectivity profile assay; assay type: biochemical; details: 500 nM, relative to DMSO
T16 construct: purchased Reaction Biology Corporation
Experimental: as §1

DAPK1 = biological target: T17, DAPK1 (Homo sapiens, UniProt P53355); assay: Kinase selectivity profile assay; assay type: biochemical; details: 500 nM; relative to DMSO; read-out: Residual enzymatic activity
T17 construct: purchased Reaction Biology Corporation
Experimental: as §1

CAMKK2 = biological target: T18, CAMKK2 (Homo sapiens, UniProt Q96RR4); assay: Kinase selectivity profile assay; assay type: biochemical; details: 500 nM; relative to DMSO; read-out: Residual enzymatic activity
T18 construct: purchased Reaction Biology Corporation
Experimental: as §1

LATS2 = biological target: T19, LATS2 (Homo sapiens, UniProt Q9NRM7); assay: Kinase selectivity profile assay; assay type: biochemical; details: 500 nM; relative to DMSO; read-out: Residual enzymatic activity
T19 construct: purchased Reaction Biology Corporation
Experimental: as §1

STK32C/YANK3 = biological target: T20, STK32C/YANK3 (Homo sapiens, UniProt Q86UX6); assay: Kinase selectivity profile assay; assay type: biochemical; details: 500 nM; relative to DMSO; read-out: Residual enzymatic activity
T20 construct: purchased Reaction Biology Corporation
Experimental: as §1

[1] = knee, day 16, MT-SYK-03 103 mg/kg PO BID + MTX Veh PO QD, individual joint (animal, R/L), 103 mg/kg
[2] = knee, day 16, MT-SYK-03 103 mg/kg PO BID + MTX Veh PO QD
[3] = knee, day 16, MT-SYK-03 207 mg/kg PO BID + MTX Veh PO QD, group mean
[4] = knee, day 16, MT-SYK-03 207 mg/kg PO BID + MTX Veh PO QD, individual joint (animal, R/L), 207 mg/kg
[5] = knee, day 16, MT-SYK-03 207 mg/kg PO BID + MTX Veh PO QD
[6] = read-out: Residual enzymatic activity

T3 sequence (P49137 whole entry): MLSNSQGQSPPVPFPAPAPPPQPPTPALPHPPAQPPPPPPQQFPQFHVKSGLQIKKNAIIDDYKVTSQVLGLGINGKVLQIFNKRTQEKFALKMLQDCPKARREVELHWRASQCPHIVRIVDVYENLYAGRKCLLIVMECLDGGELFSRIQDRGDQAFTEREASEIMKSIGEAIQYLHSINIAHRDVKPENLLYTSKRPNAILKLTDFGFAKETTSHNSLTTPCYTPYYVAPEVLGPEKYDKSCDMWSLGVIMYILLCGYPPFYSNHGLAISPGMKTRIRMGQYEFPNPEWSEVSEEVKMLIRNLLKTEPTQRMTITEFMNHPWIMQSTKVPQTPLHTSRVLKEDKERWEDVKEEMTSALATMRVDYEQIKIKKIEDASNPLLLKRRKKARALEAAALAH
T13 sequence (P16234 24-1089): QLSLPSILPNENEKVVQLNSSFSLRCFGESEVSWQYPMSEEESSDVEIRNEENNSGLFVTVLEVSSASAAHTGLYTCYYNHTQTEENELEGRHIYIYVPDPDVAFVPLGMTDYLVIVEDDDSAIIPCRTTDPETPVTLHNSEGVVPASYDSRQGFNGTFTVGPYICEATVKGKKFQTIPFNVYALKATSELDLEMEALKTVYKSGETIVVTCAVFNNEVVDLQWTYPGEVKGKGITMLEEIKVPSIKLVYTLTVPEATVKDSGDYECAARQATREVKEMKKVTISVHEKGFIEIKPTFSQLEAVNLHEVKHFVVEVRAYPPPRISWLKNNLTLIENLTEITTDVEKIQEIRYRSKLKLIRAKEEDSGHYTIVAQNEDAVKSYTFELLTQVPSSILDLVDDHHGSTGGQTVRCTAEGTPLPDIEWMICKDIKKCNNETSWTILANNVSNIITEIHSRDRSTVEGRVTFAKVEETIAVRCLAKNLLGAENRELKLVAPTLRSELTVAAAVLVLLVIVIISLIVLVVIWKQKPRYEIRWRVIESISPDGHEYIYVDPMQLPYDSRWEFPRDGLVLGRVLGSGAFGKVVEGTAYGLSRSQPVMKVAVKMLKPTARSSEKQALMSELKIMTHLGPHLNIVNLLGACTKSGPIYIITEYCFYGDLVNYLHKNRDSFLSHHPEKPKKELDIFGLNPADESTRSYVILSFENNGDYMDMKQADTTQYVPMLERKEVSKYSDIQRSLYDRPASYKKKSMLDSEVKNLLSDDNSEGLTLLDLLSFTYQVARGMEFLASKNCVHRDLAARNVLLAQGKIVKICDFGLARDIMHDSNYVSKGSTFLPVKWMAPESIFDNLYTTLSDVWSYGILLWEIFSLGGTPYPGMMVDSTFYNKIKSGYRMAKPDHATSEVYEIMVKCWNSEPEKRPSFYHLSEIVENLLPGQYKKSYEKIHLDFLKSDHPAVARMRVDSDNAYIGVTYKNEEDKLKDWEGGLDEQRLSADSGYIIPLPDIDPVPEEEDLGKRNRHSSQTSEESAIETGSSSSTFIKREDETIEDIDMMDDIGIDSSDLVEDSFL
T16 sequence (Q13882 whole entry): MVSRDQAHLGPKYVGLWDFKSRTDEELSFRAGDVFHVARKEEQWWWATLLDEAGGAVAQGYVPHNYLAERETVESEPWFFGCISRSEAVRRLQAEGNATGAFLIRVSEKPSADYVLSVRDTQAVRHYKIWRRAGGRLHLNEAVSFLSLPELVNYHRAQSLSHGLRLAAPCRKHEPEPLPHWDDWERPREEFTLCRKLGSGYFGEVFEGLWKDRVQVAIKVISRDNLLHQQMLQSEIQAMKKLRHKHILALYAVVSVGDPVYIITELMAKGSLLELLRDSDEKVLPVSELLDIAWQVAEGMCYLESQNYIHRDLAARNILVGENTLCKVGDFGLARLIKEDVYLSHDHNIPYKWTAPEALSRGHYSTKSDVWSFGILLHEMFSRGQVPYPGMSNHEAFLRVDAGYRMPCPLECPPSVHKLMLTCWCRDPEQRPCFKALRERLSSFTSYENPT
T19 sequence (Q9NRM7 whole entry): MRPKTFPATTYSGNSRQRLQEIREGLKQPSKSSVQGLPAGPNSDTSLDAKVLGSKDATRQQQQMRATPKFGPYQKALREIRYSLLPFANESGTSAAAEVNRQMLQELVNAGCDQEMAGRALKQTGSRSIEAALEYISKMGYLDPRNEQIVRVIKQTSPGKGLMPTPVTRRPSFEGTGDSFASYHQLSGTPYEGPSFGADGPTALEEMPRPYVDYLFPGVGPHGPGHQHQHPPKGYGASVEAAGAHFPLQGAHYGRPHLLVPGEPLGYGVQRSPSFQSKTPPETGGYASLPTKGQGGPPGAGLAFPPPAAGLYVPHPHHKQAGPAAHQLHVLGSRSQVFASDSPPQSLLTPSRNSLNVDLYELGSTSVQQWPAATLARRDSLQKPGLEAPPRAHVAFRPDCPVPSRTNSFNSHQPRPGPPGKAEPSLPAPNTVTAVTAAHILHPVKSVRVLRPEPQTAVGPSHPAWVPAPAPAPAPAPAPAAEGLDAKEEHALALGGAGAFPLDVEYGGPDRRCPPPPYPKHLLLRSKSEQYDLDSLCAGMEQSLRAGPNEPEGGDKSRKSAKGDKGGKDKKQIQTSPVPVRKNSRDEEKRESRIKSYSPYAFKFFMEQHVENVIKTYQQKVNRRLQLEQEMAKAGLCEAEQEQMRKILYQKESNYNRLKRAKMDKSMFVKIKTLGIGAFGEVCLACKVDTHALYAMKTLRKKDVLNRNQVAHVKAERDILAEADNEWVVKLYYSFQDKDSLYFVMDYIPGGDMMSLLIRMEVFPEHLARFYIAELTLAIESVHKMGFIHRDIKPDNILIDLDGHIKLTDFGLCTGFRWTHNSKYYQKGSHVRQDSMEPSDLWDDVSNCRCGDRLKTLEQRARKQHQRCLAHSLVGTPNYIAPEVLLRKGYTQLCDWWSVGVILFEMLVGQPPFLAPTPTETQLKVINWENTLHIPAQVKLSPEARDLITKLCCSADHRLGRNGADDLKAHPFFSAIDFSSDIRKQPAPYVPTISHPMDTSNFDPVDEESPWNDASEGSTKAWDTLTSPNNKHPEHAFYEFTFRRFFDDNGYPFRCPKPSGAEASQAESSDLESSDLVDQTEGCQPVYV
T15 sequence (Q8N568 whole entry): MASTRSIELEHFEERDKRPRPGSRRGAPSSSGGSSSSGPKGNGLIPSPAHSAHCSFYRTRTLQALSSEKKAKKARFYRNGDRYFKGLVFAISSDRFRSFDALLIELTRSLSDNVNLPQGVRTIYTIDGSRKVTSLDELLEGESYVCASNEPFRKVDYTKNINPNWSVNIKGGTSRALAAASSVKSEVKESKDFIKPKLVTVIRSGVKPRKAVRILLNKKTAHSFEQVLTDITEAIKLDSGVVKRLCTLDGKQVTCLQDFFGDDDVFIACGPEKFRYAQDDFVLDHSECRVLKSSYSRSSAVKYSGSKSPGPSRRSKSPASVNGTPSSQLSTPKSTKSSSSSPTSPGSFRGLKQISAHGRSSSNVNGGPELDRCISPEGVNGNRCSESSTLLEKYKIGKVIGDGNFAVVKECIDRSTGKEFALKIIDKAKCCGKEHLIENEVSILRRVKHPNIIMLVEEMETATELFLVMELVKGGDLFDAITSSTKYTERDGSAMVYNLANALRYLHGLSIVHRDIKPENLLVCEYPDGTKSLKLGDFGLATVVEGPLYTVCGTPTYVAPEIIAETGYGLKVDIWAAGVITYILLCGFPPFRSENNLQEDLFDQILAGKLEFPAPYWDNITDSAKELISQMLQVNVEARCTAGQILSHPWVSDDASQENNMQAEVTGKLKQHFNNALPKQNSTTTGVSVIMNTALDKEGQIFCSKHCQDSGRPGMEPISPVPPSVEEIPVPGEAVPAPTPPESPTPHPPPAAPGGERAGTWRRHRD
T10 sequence (Q04771 21-509): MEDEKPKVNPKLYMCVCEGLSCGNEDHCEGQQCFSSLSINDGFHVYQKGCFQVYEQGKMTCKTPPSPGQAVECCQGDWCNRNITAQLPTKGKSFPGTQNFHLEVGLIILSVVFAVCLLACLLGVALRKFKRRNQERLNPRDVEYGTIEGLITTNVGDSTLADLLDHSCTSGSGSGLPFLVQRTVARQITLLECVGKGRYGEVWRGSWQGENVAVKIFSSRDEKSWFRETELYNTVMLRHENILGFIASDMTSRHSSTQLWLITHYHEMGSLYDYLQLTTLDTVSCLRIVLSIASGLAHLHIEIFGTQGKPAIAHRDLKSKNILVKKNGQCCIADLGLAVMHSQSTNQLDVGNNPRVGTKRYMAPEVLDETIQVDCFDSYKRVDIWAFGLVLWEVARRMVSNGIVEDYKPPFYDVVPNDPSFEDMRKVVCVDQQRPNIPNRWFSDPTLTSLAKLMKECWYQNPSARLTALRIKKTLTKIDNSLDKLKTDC
T18 sequence (Q96RR4 whole entry): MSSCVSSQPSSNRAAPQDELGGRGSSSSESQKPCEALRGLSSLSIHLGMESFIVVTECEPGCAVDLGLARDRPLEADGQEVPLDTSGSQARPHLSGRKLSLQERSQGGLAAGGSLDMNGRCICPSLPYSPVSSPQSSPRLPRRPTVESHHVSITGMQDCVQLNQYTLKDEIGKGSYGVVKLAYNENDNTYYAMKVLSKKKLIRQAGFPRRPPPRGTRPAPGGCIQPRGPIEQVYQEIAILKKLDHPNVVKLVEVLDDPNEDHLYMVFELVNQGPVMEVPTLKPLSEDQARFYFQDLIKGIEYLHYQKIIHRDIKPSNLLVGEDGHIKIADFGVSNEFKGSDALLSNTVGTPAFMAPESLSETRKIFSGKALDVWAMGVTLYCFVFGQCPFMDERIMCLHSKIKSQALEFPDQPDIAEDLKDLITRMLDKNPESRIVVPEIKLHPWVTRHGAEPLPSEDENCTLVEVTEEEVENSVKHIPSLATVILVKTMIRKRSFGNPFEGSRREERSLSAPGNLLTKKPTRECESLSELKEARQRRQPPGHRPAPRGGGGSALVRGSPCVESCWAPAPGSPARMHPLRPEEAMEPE

For `COc1cc(Nc2ncnc(Nc3cc4c(cn3)NC(=O)C(C)(C)O4)n2)cc(OC)c1OC` [MT-SYK-03], the “Cartilage Damage score (0=normal to 5=severe)” value (Lewis rats, CIA model; [1]) was 2 and 0 and 1 and 0.5, the “Inflammation score (0=normal to 5=severe)” value (Lewis rats, CIA model; [1]) was 5 and 0.5 and 4 and 3 and 2 and the “Pannus score (0=normal to 5=severe)” value (Lewis rats, CIA model; [1]) was 1 and 2 and 0 and 0.5. For the same compound, the “Summed Histopathology Scores” value (Lewis rats, CIA model; [1]) was 9 and 11 and 0.5 and 7 and 8 and 5 and 4.5 and 3 and 1, the “Bone Resorption score, % inhibition” value (Lewis rats, CIA model; [2]) was 9% and the “Cartilage Damage score, % inhibition” value (Lewis rats, CIA model; [2]) was 21%. For the same compound, the “Inflammation score, % inhibition” value (Lewis rats, CIA model; [2]) was 13%, the “Pannus score, % inhibition” value (Lewis rats, CIA model; [2]) was 4% and the “Summed Histopathology Scores, % inhibition” value (Lewis rats, CIA model; [2]) was 13%. The “Bone Resorption score, Mean” value (Lewis rats, CIA model; [3]) was 0.16, the “Cartilage Damage score, Mean” value (Lewis rats, CIA model; [3]) was 0.56 and the “Inflammation score, Mean” value (Lewis rats, CIA model; [3]) was 1.59. For the same compound, the “Pannus score, Mean” value (Lewis rats, CIA model; [3]) was 0.41, the “Summed Histopathology Scores, Mean” value (Lewis rats, CIA model; [3]) was 2.63 and the “Bone Resorption score (0=normal to 5=severe)” value (Lewis rats, CIA model; [4]) was 0.5 and 1 and 0. For the same compound, the “Cartilage Damage score (0=normal to 5=severe)” value (Lewis rats, CIA model; [4]) was 1 and 0 and 0.5, the “Inflammation score (0=normal to 5=severe)” value (Lewis rats, CIA model; [4]) was 4 and 1 and 0 and 2 and 3 and 0.5 and the “Pannus score (0=normal to 5=severe)” value (Lewis rats, CIA model; [4]) was 0.5 and 1 and 0. The “Summed Histopathology Scores” value (Lewis rats, CIA model; [4]) was 6 and 7 and 2.5 and 0 and 3 and 4.5 and 2 and 5 and 5.5 and 3.5 and 0.5, the “Bone Resorption score, ANOVA to Vehicle” value (Lewis rats, CIA model; knee, day 16, MT-SYK-03 207 mg/kg PO BID + MTX Veh PO QD, p value) was “p < 0.05” and the “Bone Resorption score, % inhibition” value (Lewis rats, CIA model; [5]) was 78%. For the same compound, the “Cartilage Damage score, % inhibition” value (Lewis rats, CIA model; [5]) was 57%, the “Inflammation score, % inhibition” value (Lewis rats, CIA model; [5]) was 50% and the “Pannus score, % inhibition” value (Lewis rats, CIA model; [5]) was 46%. The “Summed Histopathology Scores, % inhibition” value (Lewis rats, CIA model; [5]) was 56%, the “Histopathology scores for cartilage damage and bone resorption, ankles and knees” value (Lewis rats, CIA model; rat CIA, day 16) was “chondroprotective and antiresorptive effects” and the “Histopathology scores of inflammation and pannus formation” value (Lewis rats, CIA model; rat CIA, day 16) was “smaller”. The “Relative weights of thymus, liver and spleen” value (Lewis rats, CIA model; rat CIA, day 16) was “statistically identical across all groups”, the remaining activity at 0.5 µM (ROCK2) was 91.1% and the remaining activity at 0.5 µM (BRAF) was 86.7%. For the same compound, the Residual enzymatic activity (MAPKAPK2) was “did not inhibit any”, the remaining activity at 0.5 µM (MAPKAPK2; [6]) was 101% and the remaining activity at 0.5 µM (GRK1) was 105%. It also gave a remaining activity at 0.5 µM (MYO3b) of 95.4%, a remaining activity at 0.5 µM (RIPK3) of 108% and a remaining activity at 0.5 µM (DRAK1/STK17A) of 93.6%. It also gave a remaining activity at 0.5 µM (GCK/MAP4K2) of 100%, a remaining activity at 0.5 µM (PDK1/PDPK1) of 85.5% and a remaining activity at 0.5 µM (ALK2/ACVR1) of 241%. The remaining activity at 0.5 µM (GRK3) was 103%, the remaining activity at 0.5 µM (SGK1) was 108% and the remaining activity at 0.5 µM (PDGFRa; 500 nM, relative to DMSO, read-out: Residual enzymatic activity) was 46.4%. For the same compound, the IC50 (PDGFRa; 10-dose mode, threefold serial dilution from 10 μM) was 35.9 nM, the remaining activity at 0.5 µM (CDK5/p35) was 101% and the remaining activity at 0.5 µM (DCAMKL2) was 99.1%. The Residual enzymatic activity (BRK) was 54.2%, the remaining activity at 0.5 µM (BRK; [6]) was greater than 54% and the remaining activity at 0.5 µM (DAPK1) was 113%. The remaining activity at 0.5 µM (CAMKK2) was 97.2%, the remaining activity at 0.5 µM (LATS2) was 85.3% and the remaining activity at 0.5 µM (STK32C/YANK3) was 115%.
